# In patent publication EP0827486B1, “STABILIZED ALKALI OR ALKALINE EARTH METAL HYPOBROMITE AND PROCESS FOR ITS PRODUCTION” (NALCO CHEMICAL COMPANY, priority 1996, dated 1997):
# Columns and labels:
# [1] = system: Pseudomonas aeruginosa; test: Antibacterial activity of stored hypohalite solutions in cooling water; type: cell-based; settings: volume initially required for one ppm free halogen
# Protocol: Freshly prepared solutions of stabilized and unstabilized sodium hypobromite were diluted then added to cooling water in order to achieve a one ppm free halogen residual (as chlorine). Sodium hypochlorite was stabilized in the same fashion as described for NaOBr in Example One with the exception that NaBr was directly replaced with distilled water. Stabilized and unstabilized sodium hypochlorite were diluted then added to cooling water at a final concentration of one ppm free halogen residual (as chlorine). The volumes of all solutions needed to achieve a one ppm free halogen residual (as chlorine) was recorded. Following 6 and 21 days of dark storage, identical dilutions of stabilized and unstabilized sodium hypohalite solutions were prepared and the volume originally required for a one ppm free halogen residual (as chlorine) was added to cooling water containing approximately 10^6 Pseudomonas aeruginosa cells / mL. Aliquots were extracted at 10 and 30 minutes into cooling water dilution blanks containing a halogen neutralizer (0.05 percent Na2S2O3) then enumerated on tryptone glucose extract agar. Stabilized NaOBr retained its antibacterial activity after storage while the unstabilized form lost its efficacy against Pseudomonas aeruginosa (see Table III below). The results were even more dramatic as the storage period increased. This effect was likely due to the disproportionation of the unstable hypobromite ion into the non-biocidal species bromide and bromate. […]
# [2] = Volatility: halogen vapors from concentrated solutions in a beaker; type: physicochemical; settings: concentrated solution in a beaker
# Protocol: Concentrated solutions of either NaOCI, NaOBr, or stabilized NaOBr were added to a beaker. […] No odors were noticed from the stabilized NaOBr. This is an improvement over existing products by minimizing halogen odors in product storage areas.
# [3] = Bromate analysis of cooling water dosed with dilute solutions; type: physicochemical; settings: cooling water (pH 8.3); total available halogen 1, 2, 3, and 4 ppm (as Cl2)
# Protocol: As noted above, the pH of these solutions was high which favors bromate formation. However, NaOCl, which contains significant amounts of NaOH, is typically diluted with system water prior to the introduction of the bromide species in most industrial applications. The pH of this diluted system would be lower than the neat NaOCI / NaBr formulation described above theoretically minimizing bromate formation. The available chlorine in a NaOCI sample diluted (1:100) with distilled water was titrated by the DPD-FAS method. A solution of 45 percent sodium bromide was added to the dilute NaOCI at a molar ratio of 1 Cl2 : 1 Br^- forming NaOBr. This reaction proceeded for thirty minutes. Then, appropriate volumes of this dilute NaOBr solution were added to cooling water (pH 8.3) giving total available halogen levels of 1, 2, 3, and 4 ppm (as Cl2) as determined by the DPD-FAS method. Similarly, a dilution of stabilized sodium hypobromite (1:100) was made in distilled water. Dilute stabilized NaOBr was added to cooling water (pH 8.3) giving total available halogen levels of 1, 2, 3, and 4 ppm (as Cl2) as determined by the DPD-FAS method. Bromate analysis then proceeded in the manner described above. Bromate was not detected in any of the cooling water samples dosed with either stabilized or unstabilized dilute NaOBr at typical use concentrations.
# [4] = Bromate formation in stored solutions (ion chromatography); type: physicochemical; settings: STORED FOR EIGHT MONTHS in the dark at room temperature; pH 14
# Protocol: Hypohalite ions are known to disproportionate into halate and halide under alkaline conditions. Halate ions are undesirable degradants being suspect carcinogens and are under consideration for governmental regulation. The reaction of NaBr with NaOCI can yield significant amounts of bromate in elevated pH environments. […] Stabilized and unstabilized sodium hypobromite solutions were prepared as described in Example One. These solutions were stored in the dark at room temperature during the course of the study. Eight month old samples of stabilized and unstabilized NaOBr, both maintained at pH 14, a condition suitable for bromate formation, were assayed for bromate. A Dionex 4000 series gradient ion chromatography system equipped with AG9-SC/AS9-SC columns and a conductivity detector was used to measure the bromate concentration in the samples. The chromatograph was operated according to a method currently under investigation by the EPA for the analysis of bromate in ozonated drinking water. Purified water from an Interlake Water Systems deionization system was used for the preparation of all reagents and standard solutions to prevent contamination.
# [5] = Storage stability: loss of available halogen; type: physicochemical
# Protocol: Sodium hypochlorite solution was diluted in demand-free water. This diluted solution was titrated by the DPD-FAS method. The available chlorine level present in the original solution was determined to be 15 percent. 42.4 grams of the neat NaOCl solution were added to 20.5 grams of a 45 percent NaBr solution. This reaction forms unstabilized NaOBr. The stabilization solution was formulated with 9.6 grams of sulfamic acid, 14 grams of water, and 13.2 grams of 50 percent sodium hydroxide. The stabilization solution is then added with stirring to the NaOBr. The order of addition is critical in this process which differs from the Goodenough et al. reference. For instance, if the stabilizer was added to NaOCl prior to NaBr introduction, the bromide would not be oxidized to hypobromite. […] The stabilization procedure described here improved on the prior art as the decline of active ingredient was only 1 percent after 84 days (see Table I above). An unstabilized NaOBr solution prepared in an similar process by replacing sulfamic acid with distilled water lost 94 percent available halogen during the same period.
# [6] = From the text: AOX is a generic class of compounds which includes all organic molecules containing halogen. Limits for AOX discharge from cooling water systems have already been established in some European countries. To simulate AOX formation during stabilized and unstabilized sodium hypobromite action in cooling water, a mixed bacterial culture typically found in cooling water was cultivated in L-broth overnight and the cells harvested by centrifugation. The cell pellet was washed with synthetic cooling water (90 ppm calcium, 50 ppm magnesium, 110 ppm "M" alkalinity, pH 8.0 -8.2) twice to remove the remaining organic medium. Cells were then resuspended into an equal volume of cooling water. A capped dark bottle served as the reactor. Synthetic cooling water was added to the bottle followed by the washed bacterial stock yielding approximately 10^7 cells/ml. Stabilized NaOBr or unstabilized NaOBr was dosed into this bacterial suspension at a final concentration of 1, 2, 3, or 4 ppm total halogen (as chlorine). Headspace in the bottle was minimized to avoid the evaporative loss of halogenated organics and the solution stirred for 24 hours to simulate a typical cooling system. Immediately before AOX analysis, the sample was acidified to pH 2.0 with concentrated nitric acid. A Mitsubishi TOX-10 Analyzer was used according to US EPA Method 9020 to measure the AOX concentration in the samples. […]
# [7] = 6 DAYS OF STORAGE, CONTACT TIME 10 MINUTES
# [8] = 6 DAYS OF STORAGE, CONTACT TIME 30 MINUTES
# [9] = 21 DAYS OF STORAGE, CONTACT TIME 10 MINUTES
# [10] = 21 DAYS OF STORAGE, CONTACT TIME 30 MINUTES
Structure (SMILES),"% BACTERIA KILLED [1, 7]","% BACTERIA KILLED [1, 8]","% BACTERIA KILLED [1, 9]","% BACTERIA KILLED [1, 10]",Halogen vapors / odors [2],Bromate [3],PERCENT BROMATE [4],% LOSS OF AVAILABLE HALOGEN ([5]; After 14 days),% LOSS OF AVAILABLE HALOGEN ([5]; After 21 days),% LOSS OF AVAILABLE HALOGEN ([5]; After 34 days),% LOSS OF AVAILABLE HALOGEN ([5]; After 84 days),"% LOSS OF AVAILABLE HALOGEN ([5]; After 84 days, listed as unstabilized NaOBr)",linear-fit equation AOX (ppb) = factor X Dose (ppm) [6]
"[Na+].[O-]Cl [unstabilized NaOCl, sodium hypochlorite]",100%,100%,100%,100%,Halogen vapors were detected,–,–,–,–,–,–,–,–
"[Na+].[O-]Br [Unstabilized Sodium Hypobromite, sodium hypobromite]",99.8%,99.7%,0.4%,6.1%,Halogen vapors were detected,not detected,2.700%,74%,79%,84%,93%,94%,53.9
